Assays:
[1] = test system: human prostate cancer cells (PC3); test: Assessment of cytotoxicity by SRB assay, prostate cancer cells; assay type: cell-based; conditions: for IC50: mean±SD
Text: (§1) The anticancer activity of the described synthesized compounds against highly aggressive androgen-independent metastatic human prostate cancer cells (PC3) and osteosarcoma (MG-63) cells. The human prostate cancer cells (PC3) and human osteosarcoma cells (MG-63) were obtained from Nawah Scientific Inc. (Mokatam, Cairo, Egypt) and cultured in DMEM (Dulbecco's modified eagle's medium), Gibco, USA, supplemented with fetal bovine serum (FBS) at a concentration of 10% and 100 U/mL of penicillin and streptomycin (PS). The Cells were incubated at 37° C. in a humidified environment that contained 5% CO2.
(§2) Cells were seeded in 96-well plates as aliquots of 100 μL cell suspension and incubated in a complete media for 24 h. afterward, cells were treated with 2-(1H-imidazole-1-carbonyl)benzoic acid at diverse concentrations ranging from 0.01 μM to 100 μM for 72 h. Then, cells were fixed at 4° C. for one hour with 150 μL of 10% trichloroacetic acid (TCA). After washing the cells five times with distilled water, […] of sulforhodamine (SRB) solution (0.4% w/v) was added and incubated for 10 min at room temperature in a dark place. Cells were washed with 1% acetic acid three times and allowed to air-dry. Then, 150 μL of Tris pH 10.5 (10 mM) was added, and the absorbance was measured at 540 nm using a BMG LABTECH®—FLUOstar Omega microplate reader (Ortenberg, Germany). Half maximal inhibitory concentrations (IC50) values were calculated for each experiment using GraphPad Prism 6 software. IC50 values were reported as mean±SD.
(§3) The inhibition was calculated using the following equation: Inhibition %=100−Average Viability

[2] = test system: human osteosarcoma cells (MG-63); test: Assessment of cytotoxicity by SRB assay, osteosarcoma cells; assay type: cell-based; conditions: for IC50: mean±SD
Text: as §1, §2, §3

[3] = Homo sapiens, MG-63 cells, 72 h

| Compound | inhibition at 10 µg/mL ([1]; Homo sapiens, PC-3, 72 h, PC-3 cells, 10 μg/ml, 72 h) | IC50 ([1]; Homo sapiens, PC-3 cells, 72 h) | Prostate cancer (PC-3) Inhibition % ([1]; PC-3 cells, 10 μg/ml, 72 h) | IC50 values, prostate cancer cell line ([1]; PC-3 cells, bound stated in text for both cell lines) | antiproliferative activities against cancer cells (PC3) ([1]; result in words) | inhibition at 10 µg/mL ([2]; Homo sapiens, MG-63 cells, 10 μg/ml, 72 h) | inhibition at 100 µg/mL ([2]; Homo sapiens, MG-63 cells, 100 μg/ml, 72 h) | IC50 [2, 3] | IC50 values, osteosarcoma cell line ([2]; MG-63 cells, bound stated in text for both cell lines) | antiproliferative activities against osteosarcoma (MG-63) cells ([2]; result in words) |
| --- | --- | --- | --- | --- | --- | --- | --- | --- | --- | --- |
| O=C(O)c1ccccc1C(=O)n1ccnc1 [2-(1H-imidazole-1-carbonyl)benzoic acid] | 93% | 2.67 ± 0.03 µM | 93.44% | < 4 µM | excellent antiproliferative activities | 88.9% | 90.9% | 3.55 ± 0.2 µM | < 4 µM | excellent antiproliferative activities |
| COc1cccc2c1C(=O)c1c(O)c3c(c(O)c1C2=O)C[C@@](O)(C(=O)CO)C[C@@H]3O[C@H]1C[C@H](N)[C@H](O)[C@H](C)O1 [DOX, Doxorubicin, reference compound] | – | 7.5 ± 0.45 µM | – | – | – | – | – | 9.3 ± 1.1 µM | – | – |

— patent US12172966B1, “2-(1H-imidazole-1-carbonyl)benzoic acid as an anticancer compound” (KING FAISAL UNIVERSITY, priority 2023, dated 2024)
